From US20240352145A1, “EFFICACY OF ANTI-TROP-2-SN-38 ANTIBODY DRUG CONJUGATES FOR THERAPY OF TUMORS RELAPSED/REFRACTORY TO CHECKPOINT INHIBITORS” (Immunomedics, Inc., priority 2016, published 2024)
Like-named read-outs stand apart in the source and are kept apart here.

Key:
TNBC = format: in vivo, human
Method: Medical History—The patient is a person who was first diagnosed in October 2007 with a 1.8 cm mass in their right breast. They underwent a right mastectomy with a sentinel node biopsy (no malignancy in nodes). The tumor was determined to be negative for ER, PR and Her-2 (i.e., TNBC). They proceeded with 4 cycles of AC (doxorubicin and cyclophosphamide) therapy, followed by weekly low dose paclitaxel (×12). […] They had local surgery to remove the node and then received XRT (radiation therapy) through March 2009. In June 2010 CT documented recurrent pulmonary and bone involvement. The patient enrolled in a clinical trial using AVASTIN® (bevacizumab), METMAB® (onartuzumab, […]), and TAXOL® (paclitaxel), which they were maintained on until March 2013, having a complete response, but eventual progression of peripheral lung nodule and node in AP (aortopulmonary) window. In September 2014, they started on PD-L1 antibody (MPDL3280A) for 6 cycles, but progressed in January 2015.
2015 at a dose of 10 mg/kg, and has continued to receive this dose without reduction or delay in planned schedule now for 40+ doses.

BxPC-3 [1] = experiment: Cytotoxicity (MTS), Example 7, BxPC-3; format: cell-based, human; conditions: BxPC-3, 96 h
Method: One day prior to adding the ADC, cells were harvested from tissue culture and plated into 96-well plates at 2000 cells per well. […] Plates were incubated at 37° C. for 96 h. […] Growth inhibition was measured as a percent of growth relative to untreated cells using Microsoft Excel and Prism software (non-linear regression to generate sigmoidal dose response curves which yield IC50-values).

PARP = experiment: Immunoblotting, apoptosis signaling, NCI-N87 and BxPC-3; format: cell-based, human; conditions: evident at 24 h, increased at 48 h
Method: Immunoblotting—Cells (2×10^6) were plated in 6-well plates overnight. […] Parental hRS7 was used as a control for the ADC. Cells were lysed in buffer containing 10 mM Tris, pH 7.4, 150 mM NaCl, protease inhibitors and phosphatase inhibitors (2 mM […], 10 mM NaF). A total of 20 μg protein was resolved in a 4-20% SDS polyacrylamide gel, transferred onto a nitrocellulose membrane and blocked by 5% non-fat milk in 1×TBS-T (Tris-buffered saline, 0.1% Tween-20) for 1 h at room temperature. Membranes were probed overnight at 4° C. with primary antibodies followed by 1-h incubation with antirabbit secondary antibody (1:2500) at room temperature. Signal detection was done using a chemiluminescence kit (Supersignal West Dura, Thermo Scientific; Rockford, IL) with the membranes visualized on a Kodak Image Station […]. Primary antibodies p21Waf1/Cip1 (Cat. No. 2947), Caspase-3 (Cat. No. 9665), Caspase-7 (Cat. No. 9492), Caspase-9 (Cat. No. 9502), PARP (Cat. No. 9542), 3-actin (Cat. No. 4967), pJNK1/2 (Cat. No. 4668), JNK (Cat. No. 9258), and goat anti-rabbit-HRP secondary antibody (Cat. No. 7074) were obtained from Cell Signal Technology (Danvers, MA).

BxPC-3 [2] = experiment: Cytotoxicity (MTS), Example 6, BxPC-3; format: cell-based, human; conditions: BxPC-3, 96 h
Method: One day prior to adding the ADCs, cells were harvested from tissue culture and plated into 96-well plates. […] Plates were incubated at 37° C. for 96 h. […] Growth inhibition was measured as a percent of growth relative to untreated cells using Microsoft Excel and Prism software (non-linear regression to generate sigmoidal dose response curves which yield IC50-values.

[3] = system: human gastric carcinoma xenografts (NCI-N87); experiment: NCI-N87 xenograft, comparison of anti-Trop-2 ADCs; format: in vivo, mouse
Method: NCI-N87 cells were expanded in tissue culture and harvested with trypsin/EDTA. Female athymic nude mice were injected s.c. with 200 μL of NCI-N87 cell suspension mixed 1:1 with matrigel such that 1×10^7 cells was administered to each mouse. Once tumors reached approximately 0.25 cm^3 in size (6 days later), the animals were divided up into seven different treatment groups of nine mice each. For the SN-38 ADCs, mice received 500 μg i.v. injections once a week for two weeks. Control mice received the non-tumor targeting hA20-SN-38 ADC at the same dose/schedule. A final group of mice received only saline and served as the untreated control. Tumors were measured and mice weighed twice a week. Mice were euthanized for disease progression if their tumor volumes exceeded 1.0 cm^3 in size.

recombinant mouse Trop-2 = biological target: T1, recombinant mouse Trop-2 (Mus musculus, UniProt Q8BGV3); experiment: Trop-2 ELISA, murine; format: binding
T1 construct: purchased Sino Biological, Inc. 50922-M08H
T1 sequence (Q8BGV3 25-317): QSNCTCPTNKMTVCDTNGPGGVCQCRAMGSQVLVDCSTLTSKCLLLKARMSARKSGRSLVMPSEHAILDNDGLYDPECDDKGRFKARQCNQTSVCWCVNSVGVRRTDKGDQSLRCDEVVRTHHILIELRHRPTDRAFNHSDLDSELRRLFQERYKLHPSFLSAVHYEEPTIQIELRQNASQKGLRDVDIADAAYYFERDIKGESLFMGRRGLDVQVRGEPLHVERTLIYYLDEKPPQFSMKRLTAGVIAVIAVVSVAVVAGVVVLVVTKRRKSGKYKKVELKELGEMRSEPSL
Method: Trop-2 ELISA—Recombinant human Trop-2 with a His-tag (Sino Biological, Inc., Bejing, China; Cat #10428-H09H) and recombinant mouse Trop-2 with a His-Tag (Sino Biological, Inc., Cat #50922-M08H) were plated onto Ni-NTA Hissorb strips (Qiagen GmbH Cat #35023) at 1 μg for 1 h at room temperature. The plate was washed four times with PBS-Tween (0.05%) wash buffer. Serial dilutions of hRS7 were made in 1% BSA-PBS dilution buffer to a test range of 0.1 ng/mL to 10 μg/mL. The plates were then incubated for 2 h at room temperature before being washed four times followed by the addition of a peroxidase conjugated secondary antibody (goat anti-human, Fc fragment specific; Jackson Immunoresearch Cat #109-036-098). After a 45-min incubation, the plate was washed and a substrate solution (o-phenylenediamine dihydrochloride (OPD); Sigma, Cat #P828) added to all the wells. Plates were incubated in the dark for 15 min before the reaction was stopped with 4N sulfuric acid. The plates were read at 450 nm on Biotek ELX808 plate reader. Data were analyzed and graphed using Prism GraphPad Software (v4.03) (Advanced Graphics Software, Inc.; Encinitas, CA).

Substance | Best Response, shrinkage (TNBC; 10 mg/kg) | Best Response (TNBC; 10 mg/kg, patient progressed after PD-L1 therapy) | decrease in sum of target lesion diameters (TNBC; CT 7 Apr. 2015, first assessment) | decrease in sum of target lesion diameters (TNBC; CT 13 Sep. 2015) | decrease in sum of target lesion diameters (TNBC; CT 15 November) | decrease in sum of target lesion diameters (TNBC; CT 18 May 2015) | decrease in sum of target lesion diameters (TNBC; CT 19 Jul. 2015) | decrease in sum of target lesion diameters (TNBC; CT 25 Feb. 2016) | time to progression (TNBC; not reached) | IC50 (BxPC-3 [1]) | PARP cleavage (PARP) | IC50 (BxPC-3 [2]) | tumor growth (AUC) vs saline and hA20-SN-38 ([3]; 500 μg i.v. once a week for two weeks) | mean time to tumor progression (TTP) ([3]; mouse, in vivo) | mice with stable disease ([3]; nine mice per group) | cross-reactivity (recombinant mouse Trop-2)
IMMU-132 | 54% | Partial response, confirmed | 33% | 52% | 54% | 48% | 50% | 46% | ≥ 12.4 months | 5.8 nM | mediated PARP cleavage | 2.6 nM | significantly inhibited tumor growth | 18.4 ± 3.3 days | 7 of 9 | 
hRS7 IgG |  |  |  |  |  |  |  |  |  |  |  |  |  |  |  | no cross-reactivity with the murine Trop-2
